Seven compounds from PMC10716780, “The multistep oxidation of cholesterol to pregnenolone by human cytochrome P450 11A1 is highly processive” (The Journal of Biological Chemistry, 2023) can be followed below.

“Also recorded” adds a separate entry of the source. Read-outs that look alike come from different tables or passages of the source.

The target in data set [1] is T1, human P450 11A1 (Homo sapiens, UniProt P05108).
T1 construct: M A S T R S P R P F N E I P S P G D N; Met-Ala (N-terminal start residues in place of the transit peptide and Ile40) (N); made in house; host or cells: E. coli C41(DE3) with GroES/GroEL, vector pET23C(+)
T1 sequence (P05108 41-521 limits assumed): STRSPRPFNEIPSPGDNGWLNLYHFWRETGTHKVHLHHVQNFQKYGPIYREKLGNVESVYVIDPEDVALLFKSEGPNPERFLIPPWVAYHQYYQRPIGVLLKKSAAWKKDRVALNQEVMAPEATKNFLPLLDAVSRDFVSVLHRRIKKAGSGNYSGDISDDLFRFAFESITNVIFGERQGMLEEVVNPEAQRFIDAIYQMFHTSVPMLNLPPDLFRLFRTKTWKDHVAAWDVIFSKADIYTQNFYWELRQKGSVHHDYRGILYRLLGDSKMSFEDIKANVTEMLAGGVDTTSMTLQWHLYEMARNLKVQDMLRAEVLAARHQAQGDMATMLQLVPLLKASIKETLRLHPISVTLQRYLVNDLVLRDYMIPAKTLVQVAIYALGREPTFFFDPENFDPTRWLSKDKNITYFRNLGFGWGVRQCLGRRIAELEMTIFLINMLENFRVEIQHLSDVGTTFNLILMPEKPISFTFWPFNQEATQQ
The data set is described as follows: Steady-state spectral (type I) binding titration, Kd determination. To be noted: up to 1 mM. As for the experimental part: Ligand binding constants were determined from the low-to high-spin (hypsochromic) spectral transition that occurs at the P450 heme as substrate entering the active site replaces water as the sixth axial heme ligand. […] As a result, we subsequently measured koff values of the P450-sterol complexes, which were consistent with the low Kd values observed (see below). Binding titrations were repeated in the presence of Adx (1 M equivalent, Fig. 6), although no significant effect was observed, even when Adx was added in excess (10-fold with cholesterol as the substrate, data not shown).
Spectra were recorded using either an OLIS-Cary 14 or OLIS-Aminco DW2a instrument (On-Line Instrument Systems) in the split-beam mode. The OLIS-Cary 14 instrument was used in the P450 11A1 titrations with a 10-cm cell (Starna Cells, catalog no. 34-Q-100, volume 25 ml).
Kd values were determined by difference spectroscopy as previously reported ([33], [43]) but with some modifications. Briefly, a long-path quartz cuvette (10 cm, 25 ml) containing P450 11A1 (0.1 μM, in 100 mM potassium phosphate buffer (pH 7.4)) was prepared and a baseline was recorded in an OLIS-Cary 14 spectrophotometer. Where indicated, the redox partner Adx was added in equimolar concentration (0.1 μM) to P450. Sterol solutions (in 45% HPCD, w/v) were added to the cuvette, the contents of the cuvette were inverted to mix, and a spectrum was recorded (350–500 nm) after each addition. The total volume added to each cuvette was kept ≤2% (v/v, 0.25 ml) in the assay. The maximum absorbance difference (usually ΔA390−A418) was plotted against the total sterol concentration, and the data were fit to a quadratic equation in GraphPad Prism software (GraphPad, https://www.graphpad.com) to estimate the dissociation constant (Kd). A quadratic equation was used to correct the ligand concentration for the enzyme-bound concentration (used as Y=B+A/2∗1/E∗((Kd+E+X)−(Kd+E+X)^2−(4∗E∗X)) (or Y = B + (A/2)∗(1/E)∗((Kd + E + X)-sqrt((Kd + E + X)∧2 -(4∗E∗X)) in Prism software), where E = enzyme concentration, Kd = dissociation constant, and X = […]).

Data set [2] has as its target T2, human P450 11A1 (Homo sapiens, UniProt P05108).
T2 sequence (P05108 41-521 limits assumed): T1 sequence (P05108 41-521 limits assumed)
T2 sequence (P00257 59-186 partner): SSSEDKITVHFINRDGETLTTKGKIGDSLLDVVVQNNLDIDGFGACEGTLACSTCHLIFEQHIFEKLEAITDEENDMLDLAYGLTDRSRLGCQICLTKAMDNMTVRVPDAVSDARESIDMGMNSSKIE
The data set is described as follows: Effect of Tween 20 and lipids on P450 11A1 catalytic activity (cholesterol to pregnenolone). The note with it: for effect on P450 11A1 catalytic activity: 50 μM cholesterol, 0.25 μM P450 11A1, lipids 30 μM phospholipid. As for the experimental part: The substrate cholesterol and its 22R-OH and 20R,22R-(OH)2 products were delivered in 2-hydroxypropyl-β-cyclodextrin (HPCD) ([36]) in assays, circumventing the need to use any detergents or organic solvents.
Reactions were run in triplicate and the conversion of cholesterol to pregnenolone was calculated and plotted (nmol pregnenolone formed min^−1 (nmol P450)^−1). (Note: These assays were done with P450 11A1 purified in the absence of Tween 20.). AdR, adrenodoxin reductase; Adx, adrenodoxin; P450, cytochrome P450.
Reactions were run in triplicate and the conversion of cholesterol to pregnenolone was calculated and plotted (nmol pregnenolone formed min^−1 (nmol P450)^−1). AdR, adrenodoxin reductase; Adx, adrenodoxin; P450, cytochrome P450.
Sterol dilutions were performed in HPCD to ensure that the HPCD composition was equal throughout all incubations (final 4.5% w/v). The reaction mixture was split between vials (425 μl in each), and reactions were preincubated (37 °C, 5 min) prior to initiation (75 μl) with an NADPH-generating system (0.5 mM NADP^+, 10 mM glucose 6-phosphate, and 2 μg ml^−1 glucose 6-phosphate dehydrogenase) ([61]). Reactions (5 min) were terminated by extraction into CH2Cl2 (2 ml) and transferred to an ice bath. After the experiment was complete, the quenched reactions were subjected to centrifugation (10^3g, 5 min, 23 °C) to separate layers, the organic (bottom) layer of each sample was removed (1.6 ml) to fresh glass vials, and the samples were brought to dryness under a stream of nitrogen.

The target in data set [3] is T1, human P450 11A1. In words: Stopped-flow ketoconazole trap, koff and binding rate measurements. As for the experimental part:
Interaction of the azole nitrogen atom with the P450 heme produces a bathochromic (“type II”) spectral shift (to ∼430 nm)—an inverse effect of the binding of substrate.
Measurement of kon rate(s) was not performed because the sterols are delivered in a solution of HPCD, from which the dissociation rate is not known.
Determinations of koff rates were performed as previously described ([33]).

The next data set has as its target T3, P450 11A1 (CYP11A1) (Homo sapiens, UniProt P05108).
T3 construct: M A S T R S P R P F N E I P S P G D N; Met-Ala (N-terminal start residues in place of the transit peptide and Ile40) (N); made in house; host or cells: E. coli (P450 11A1 in C41(DE3); Adx and AdR in E. coli)
T3 sequence (P05108 41-521 limits assumed): T1 sequence (P05108 41-521 limits assumed)
T3 sequence (P00257 59-186 partner): T2 sequence (P00257 59-186 partner)
In words: Kinetic isotope effect assay, disappearance of d0- and d3-cholesterol under single-turnover conditions. The class given is biochemical. The note with it: human, pH 7.4; 5 μM P450, 5 μM sterol, low Adx single-turnover; read-out: sterol half-life (t1/2) (converted). The procedure:
(§1) P450 11A1 incubations were performed under (low Adx) single-turnover conditions (5 μM P450, 5 μM cholesterol; see Experimental procedures) with d0- (authentic, unlabeled) and d3-cholesterol, and the disappearance of each was monitored by LC-atmospheric pressure chemical ionization-MS (m/z 369.3516 and 372.3705, respectively). In theory, if C-H bond breaking were rate-limiting in the initial hydroxylation then the rate of d3-cholesterol consumption would be slower relative to the d0 compound due to the increased strength of a C-D bond.
The kinetic isotope experiment was designed similarly to the benchtop experiment described above, but with some modifications. P450 11A1 (5 μM) was reconstituted with the redox partners AdR (10 μM) and Adx (5 μM) on ice (10 min) prior to dilution in potassium Hepes (50 mM, pH 7.4) and H2O and addition of d3-cholesterol substrate (5 μM). […]
Samples (held at 4 °C) were injected (10 μl) using a Waters Acquity UPLC system on a Acquity BEH octadecylsilane (C18) 2.1 mm × 50 mm (1.7 μm) UPLC column (held at 25 °C) with a flow rate of 0.5 ml min^−1 using an isocratic mobile phase of CH3CN (only). The column eluate was subjected to atmospheric pressure chemical ionization and analyzed using a Thermo Fisher Scientific LTQ XL Orbitrap mass spectrometer instrument operating in positive mode, scanning from m/z 100 to 500, with a resolution setting of 120,000. […]

Data set [4] has as its target T2, human P450 11A1. The data set is described as above. The class given is biochemical. Details: M A S T R S P R P F N E I P S P G D N; Met-Ala (N-terminal start residues in place of the transit peptide and Ile40) (N); made in house; host or cells: E. coli (P450 11A1 in C41(DE3); Adx and AdR in E. coli). The note with it: for kinetic isotope effect: C-22 hydroxylation, single-turnover. As for the experimental part:
as §1
The kinetic isotope experiment was designed similarly to the benchtop experiment described above, but with some modifications. P450 11A1 (5 μM) was reconstituted with the redox partners AdR (10 μM) and Adx (5 μM) on ice (10 min) prior to dilution in potassium Hepes (50 mM, pH 7.4) and H2O and addition of d3-cholesterol substrate (5 μM). The mixture was preincubated (5 min) prior to initiation with NADPH (2.5 mM, from 25 mM in potassium Hepes (50 mM, pH 7.4)) thus bringing all components to their desired final concentrations. After completing the desired incubation time, an aliquot (500 μl) was removed from the incubation and added to vials containing CH2Cl2 (5 ml) and the vials were mixed with a vortex device and placed on ice. The quenched reactions were centrifuged (10^3g, 5 min, 23 °C) to separate layers, and the organic (bottom) layers were removed (4 ml) and transferred to fresh glass vials. The extraction process was repeated and the two extracts (2 × 4 ml) from each sample were combined to maximize product recovery. Samples (8 ml) were brought to dryness under a stream of nitrogen, and the dried residues were dissolved in CH3OH (25 μl) and transferred to autosampler vials for analysis.
Samples (held at 4 °C) were injected (10 μl) using a Waters Acquity UPLC system on a Acquity BEH octadecylsilane (C18) 2.1 mm × 50 mm (1.7 μm) UPLC column (held at 25 °C) with a flow rate of 0.5 ml min^−1 using an isocratic mobile phase of CH3CN (only). The column eluate was subjected to atmospheric pressure chemical ionization and analyzed using a Thermo Fisher Scientific LTQ XL Orbitrap mass spectrometer instrument operating in positive mode, scanning from m/z 100 to 500, with a resolution setting of 120,000. Data were processed using Xcalibur QualBrowser (Thermo Fisher Scientific) software (version 2.0.7; https://www.thermofishcer.com/order/catalog/product/OPTON).

For `CC(C)CCC=O` [4-methylpentanal], the “spectral shift with P450 11A1” value on human P450 11A1 [1] was “did not induce a spectral shift”.

Take cardiolipin: the “effect on P450 11A1 catalytic activity” value on human P450 11A1 [2] is recorded as “inhibit”.

With `CC(=O)N1CCN(c2ccc(OCC3COC(Cn4ccnc4)(c4ccc(Cl)cc4Cl)O3)cc2)CC1` (centres unmarked) [ketoconazole, reference compound], the “observed rate of ketoconazole binding (ΔA430)” value on human P450 11A1 [3] (20 μM ketoconazole mixed with 2 μM P450 11A1, equal volumes, 23 °C) was 5.3 s⁻¹. The kon on human P450 11A1 [3] (read-out: fast phase of biexponential fit (ketoconazole kon), cholesterol data, trap experiment with P450-cholesterol complex) was 710000 M⁻¹ s⁻¹; at human P450 11A1 [3] (read-out: fast phase of biexponential fit (ketoconazole kon), pregnenolone data, trap experiment with P450-pregnenolone complex) it was 790000 M⁻¹ s⁻¹; on human P450 11A1 [3] (read-out: rate of ketoconazole binding to unliganded P450 11A1 (kon), stopped-flow, unliganded enzyme), at least 500000 M⁻¹ s⁻¹.

Regarding `CCCCCCCCCCCC(=O)OC[C@H](COP(=O)([O-])OCC[N+](C)(C)C)OC(=O)CCCCCCCCCCC` [L-α-dilauroyl-sn-glycero-3-phosphocholine], the “effect on P450 11A1 catalytic activity” value at human P450 11A1 [2] is on record as “not enhanced”.

As to `[2H]C([2H])(CCC(C)C)[C@@]([2H])(C)[C@H]1CC[C@H]2[C@@H]3CC=C4C[C@@H](O)CC[C@]4(C)[C@H]3CC[C@@]21C` [d3-cholesterol, (20R)-Cholest-5-ene-20,22,22-d3-3β-ol], the half-life at 5 μM on P450 11A1 (CYP11A1) was 22 s. Besides, on human P450 11A1 [4] (5 μM P450, 5 μM sterol, exponential decay fit), the rate of disappearance is 0.032 s⁻¹. Moreover, the kinetic isotope effect result is “did not observe a kinetic isotope effect” at human P450 11A1 [4] and “no kinetic deuterium isotope effect” at human P450 11A1 [4] (listed as d3-Cholesterol).

Turning to `CCCCCCCC/C=C\CCCCCCCC(=O)OC[C@H](COP(=O)([O-])OCC[N+](C)(C)C)OC(=O)CCCCCCC/C=C\CCCCCCCC` [L-α-dioleyl-sn-glycero-3-phosphocholine], the “effect on P450 11A1 catalytic activity” value on human P450 11A1 [2] was “not enhanced”.

Take Tween 20: at human P450 11A1 [2] (0.25 μM P450 11A1, 50 μM cholesterol, 40-fold Adx), the concentrations found inhibitory is recorded as > 0.008 % (w/v). On human P450 11A1 [2], the “effect on P450 11A1 catalytic activity” value is “inhibitory; also recorded: inhibited; also recorded: strongly inhibitory; also recorded: inhibits the enzyme”.
